In brackets after ≈: the same amount, converted by molar mass. Read-outs that look alike come from different tables or passages of the source.
Columns and labels:
[1] = system: O. gutturosa adult male worms; test: O. gutturosa adult worm ex vivo assay, motility; type: cell-based, Onchocerca gutturosa
Protocol: (§1) Activity against O. gutturosa adult male worms was determined using reported procedures.[7] The EC50 values were calculated using Microsoft Office Excel (2010) data analysis software. The tested compound is considered active when a motility reduction of ≥50% is observed by comparison to the untreated controls. O. gutturosa adult male worms were obtained postmortem from freshly slaughtered cattle. The worms were dissected from the nuchal ligament connective tissues of naturally infected cattle in Gambia, West Africa; the material was purchased from the International Trypanotolerance Centre, Banjul, from local butchers for use in this study. The adult worms were transferred individually to each well of a sterile 24-well (2 mL) plate (Thermo Fisher Scientific, UK) and maintained for at least 24 h in culture before use. The medium used was a minimum essential medium (MEM) with Earl’s salts and L-glutamine (Life Technologies Ltd., UK) supplemented with 10% heat inactivated newborn calf serum (Life Technologies Ltd., UK), 200 units/mL penicillin, 200 μg/mL streptomycin, and 0.5 μg/mL amphotericin B (Life Technologies Ltd., UK). Only normally active worms were used for the test, and all assays were conducted at 37 °C and 5% CO2. The positive control drug used was Immiticide (melarsomine dihydrochloride, Merial, USA). Known amounts of compounds were solubilized in 1 mL of DMSO. All stock solutions were allowed to stand at room temperature prior to use. The test items (four worms/drug concentration) were compared to untreated controls (six worms) and the positive control (two worms/drug concentration). Drug efficacy was assessed by the measurement of mean worm motility scores on a scale of 0 (immotile) to 10 (maximum) every 24 h, terminating at 120 h, using an Olympus inverted microscope. The results are reported as a percentage of the maximum score obtainable (100%) by calculating the motility index scores. The test drug is considered active when a motility reduction of ≥50% is observed by comparison to the untreated controls. […] In addition, biochemical evaluation of worm viability was assessed using MTT/formazan colorimetry. The MTT assay was carried out after the last motility reading (120 h). Single intact worms were placed in each well of a 48-well plate (Thermo Fisher Scientific, UK) containing 0.5 mL of 0.5 mg/mL MTT (Sigma, UK) in PBS solution and then incubated for 30 min at 37 °C. The worms were removed, blotted carefully, and individually transferred to separate wells of a 96-well microtiter plate, each containing 200 μL of DMSO to solubilize the formazan. After 1 h, the plate was gently agitated to disperse the color evenly and the absorbance value (optical density, OD) of the resulting formazan solution was determined at 490 nm using an absorbance microplate reader (Biotek ELx800, Thermo Fisher Scientific, UK). The results are expressed as the mean OD per drug concentration. Inhibition of formazan formation is correlated with worm damage or death.
Data S1. Onchocerca gutturosa adult male worms EC 50 Curves
Plotted using Graph Pad Prism 7.03, least square original fit, sigmoidal, 4PL
The measurement of mean worm motility every 24 h, terminating at 120 h, serial 1 in 4 drug dilutions to find
activity endpoint and produce EC50 values (geomean, n=2) for motility reduction. (4 worms per drug […]

[2] = system: O. gutturosa adult male worms; test: O. gutturosa adult worm ex vivo assay, MTT/formazan viability; type: cell-based, Onchocerca gutturosa; conditions: supplement, SD in brackets in the PDF table, read-out: O. gutturosa EC50 (uM) MTT viability inhibition
Protocol: as §1

[3] = Kinetic solubility measurement; type: physicochemical
Protocol: Kinetic Solubility Measurement: The standard kinetic solubility assay runs on […] concentration range using 10 mM DMSO stock solutions for plating. Single point calibration assay runs in duplicates. Concentration of standards: […] DMSO solutions prepared by diluting 10 mM stock, solution with DMSO. Concentration of samples: 200 µM, 4 µl 10 mM DMSO stock solution diluted with the appropriate buffer to […]. DMSO content:
2%. Buffers: pH=7.4 (0.1M Potassium phosphate buffer, diluted from Sigma 1M P3619-1GA to 0.1 M with MilliQ water), pH=2.2 (0.1M- NaCl pH adjusted with 0.1N HCL), pH=6.8 (0.1M - KH2PO4/K2HPO4), pH=5 (4 .04g of NaOH (Pellets), 8.65g of Glacial Acetic Acid, 11.874g of NaCl. In in 1 liter water. Adjusted to pH to 5 with either 1N NaOH or 1N HCl). The controls were plated from the standard 10 mM DMSO stock and run on the standard concentration (200µM) range of the assay. Incubation time: 24 hours shaking at […] in Millipore Multiscreen HTS filter plate for Aqueous Solubility Assay (MSSLBPC50), on room temperature.
After incubation time filtration with positive pressure manifold was performed. […]

[4] = LogD measurement (octanol-water); type: physicochemical
Protocol: LogD Measurement: Measurement of octanol-water distribution coefficient of samples using a […]
stock solutions for plating. Aqueous Phase: 100mM Buffer, pH=7.4 (0.1M Potassium phosphate buffer, diluted from Sigma 1M P3619-1GA to 0.1 M with MilliQ water), pH=2.2 (0.1M- NaCl pH adjusted with 0.1N HCL), pH=6.8 (0.1M - KH2PO4/K2HPO4), pH=5 (4 .04g of NaOH (Pellets), 8.65g of Glacial Acetic Acid, 11.874g of NaCl. In in 1 liter water. Adjusted to pH to 5 with either 1N NaOH or 1N HCl); Organic Phase: 1-Octanol (O021). Sample Concentration:
1000uM, […] 10 mM DMSO stock solution diluted in […] of organic Phase and […] of aqueous Phase. DMSO content: 10%. The controls were plated from the standard 10 mM DMSO stock and run on the standard concentration ([…]) range of the assay. Incubation time:
Sonication for 30 minutes followed by 24 hours shaking at 750 rpm in 96 deep well plate (VWR

[5] = Liver S9 metabolic stability assay, rat; type: in vitro ADME; conditions: 3 μM, 60 min
Protocol: (§2) Liver S9 Metabolic Stability Assay: Incubations were performed at 37 °C in a Dubnoff Shaking water bath using 2 mL 96-well incubation plates. Rat and human S9 protein concentrations were 0.75 mg/ml and 1.2 mg/ml, respectively. The final concentrations of NADPH, UDPGA, and GSH were 1, 0.5, and 2.5 mM, and the final concentration of PAPS was 0.05 mg/ml. Substrate concentrations were 3µM, incubation time was 60 minutes, and all tests were done in triplicate. The incubation was conducted in 200 mM Tris buffer containing 2 mM magnesium chloride, pH=7.4 and the total incubation volume was 0.5 ml. Samples were analysed via LC-MS/MS and reported as percentage remaining after incubation for 60 minutes. […]

[6] = Liver S9 metabolic stability assay, human; type: in vitro ADME; conditions: 3 μM, 60 min
Protocol: as §2

THLE-2 cells = test: THLE-2 cytotoxicity assay (ATP); conditions: Homo sapiens, THLE-2, read-out: THLE IC50
Protocol: In vitro cytotoxicity of select compounds was tested in a “normal” proliferating transformed human liver epithelial (THLE-2) cell line.[35] Compounds were incubated in THLE-2 cells for 24 and 72 h, and adenosine triphosphate (ATP) levels were used as an indicator of cell viability.
THLE-2 Cytotoxicity Assay: THLE-2 cells (ATCC, catalog #CRL-2706) were plated in LHC-8 Media (Invitrogen, catalog #12679015) supplemented with fetal bovine serum (GE, catalog #SH30088.03), 70 ng/mL phosphoethanolamine (Sigma, catalog #P0503), 5 ng/mL EGF (Sigma, catalog #E9644), 1X penicillin/streptomycin (Gibco, catalog #15140148), and 1X glutamine (Invitrogen, catalog #25030024) in 384-well clear-bottom, black walled plates at a density of 3750 cells/well (15μL/well). After plating, cells were incubated overnight at 37°C in an incubator with 5% CO2 and 90% humidity. Compounds were first serially diluted in dimethyl sulfoxide then diluted in LHC-8 media growth media to 2X concentration. Cells were dosed with 15μL of each dose for final concentrations between 0.01 – 300 μM. Cells were incubated with compounds for 24 or 72 hours. Cytotoxicity was determined with Cell Titer Glo Luminescent ATP Assay (Promega, catalog #G7573) according to the manufacturer’s instructions. Tamoxifen (Sigma, catalog #BC9353476) was used as a positive control. levels at each dose were normalized to that of cells dosed with dimethyl sulfoxide vehicle alone and IC50 values were calculated from non-linear regression fits of dose-response curves plotted

[7] = biological target: T1, hERG potassium channels (KCNH2, expressed in HEK293 cells) (Homo sapiens, UniProt Q12809); test: hERG inhibition; type: cell-based; conditions: supplement
T1 construct: expressed in transfected cells

[8] = Onchocerca gutturosa, read-out: O. gutturosa EC50 μM (SD), ex vivo adult worm motility reduction, SD in brackets
[9] = Onchocerca gutturosa, read-out: O. gutturosa EC50 (uM) motility inhibition, supplement, SD in brackets in the PDF table
[10] = supplement, read-out: measured logD

T1 sequence (Q12809 whole entry): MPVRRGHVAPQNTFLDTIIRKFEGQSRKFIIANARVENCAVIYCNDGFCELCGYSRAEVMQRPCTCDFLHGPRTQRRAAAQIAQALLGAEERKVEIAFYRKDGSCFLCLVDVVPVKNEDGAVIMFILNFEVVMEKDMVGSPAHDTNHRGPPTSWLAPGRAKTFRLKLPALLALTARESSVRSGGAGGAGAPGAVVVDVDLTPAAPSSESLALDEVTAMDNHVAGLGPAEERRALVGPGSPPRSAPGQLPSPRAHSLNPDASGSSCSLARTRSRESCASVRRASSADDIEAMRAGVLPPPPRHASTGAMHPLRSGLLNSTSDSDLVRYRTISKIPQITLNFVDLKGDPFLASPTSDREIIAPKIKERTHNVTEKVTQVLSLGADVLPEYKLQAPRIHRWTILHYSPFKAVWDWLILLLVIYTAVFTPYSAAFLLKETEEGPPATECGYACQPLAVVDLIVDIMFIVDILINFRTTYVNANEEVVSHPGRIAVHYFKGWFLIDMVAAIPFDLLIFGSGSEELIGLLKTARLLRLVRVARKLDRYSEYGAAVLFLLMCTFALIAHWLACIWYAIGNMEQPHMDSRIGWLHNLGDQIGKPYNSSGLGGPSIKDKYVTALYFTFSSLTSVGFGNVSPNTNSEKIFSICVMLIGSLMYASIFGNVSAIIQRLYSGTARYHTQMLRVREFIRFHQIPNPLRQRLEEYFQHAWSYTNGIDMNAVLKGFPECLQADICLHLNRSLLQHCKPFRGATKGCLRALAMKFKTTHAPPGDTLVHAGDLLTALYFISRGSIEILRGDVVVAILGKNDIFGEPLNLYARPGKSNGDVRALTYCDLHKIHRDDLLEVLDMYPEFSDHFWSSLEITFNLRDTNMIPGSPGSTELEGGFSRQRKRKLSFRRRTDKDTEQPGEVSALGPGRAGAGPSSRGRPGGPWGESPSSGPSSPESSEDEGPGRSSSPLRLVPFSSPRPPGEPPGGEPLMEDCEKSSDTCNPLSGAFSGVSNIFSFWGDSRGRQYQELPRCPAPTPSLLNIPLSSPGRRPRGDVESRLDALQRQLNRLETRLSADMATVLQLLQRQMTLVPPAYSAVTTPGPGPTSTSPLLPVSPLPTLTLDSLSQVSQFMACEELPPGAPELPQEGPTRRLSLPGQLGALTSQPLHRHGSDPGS

SMILES | EC50 [1, 8] | EC50 [1, 9] | EC50 ([2]; Onchocerca gutturosa) | solubility kinetic at 24 h ([3]; 10 mM DMSO stock solutions) | logD at 24 h ([4]; pH 7.4, read-out: logD) | logD at 24 h [4, 10] | Rat S9 metabolic stability [5] | Human S9 metabolic stability [6] | IC50 (THLE-2 cells) | EC50 [2] | EC50 ([1]; read-out: O. gutturosa EC50 (uM) motility inhibition, supplement, SD in brackets in the PDF table) | solubility kinetic at 24 h ([3]; supplement) | IC50 [7]
COc1cccnc1Nc1nc(-c2ccc(OC(C)C)cn2)ns1 [Compound 28, 3-(5-Isopropoxypyridin-2-yl)-N-(3-methoxypyridin-2-yl)-1,2,4-thiadiazol-5-amine] | 0.08 µM | 0.076 µM | 0.62 µM | 7.25 µM (≈ 2.49 µg/mL) | 1.7 | 1.7 | 100 % remaining | 100 % remaining | 7700 nM |  |  |  | 
CC(C)c1cnc(Nc2nc(-c3ncccc3OC3CC3)ns2)cc1C(F)(F)F [Compound 38, 3-(3-Cyclopropoxypyridin-2-yl)-N-(5-isopropyl-4-(trifluoromethyl)pyridin-2-yl)-1,2,4-thiadiazol-5-amine] | 0.02 µM | 0.017 µM | < 0.02 µM | 1.03 µM (≈ 0.434 µg/mL) | 2.95 | 2.95 | 93 % remaining | 100 % remaining |  | < 0.015 µM |  |  | 
Cc1cccnc1Nc1nc(-c2cnc(OC(C)C)cn2)ns1 [Compound 39, 3-(5-Isopropoxypyrazin-2-yl)-N-(3-methyl-2-pyridyl)-1,2,4-thiadiazol-5-amine] | 0.29 µM | 0.286 µM | 1.1 µM | 2.1 µM (≈ 0.69 µg/mL) | 3.1 | 3.1 | 74 % remaining | 81 % remaining |  |  |  |  | 
Cc1nccnc1Nc1nc(-c2ccc(OC(C)C)cn2)ns1 [Compound 41, 3-(5-Isopropoxy-2-pyridyl)-N-(3-methylpyrazin-2-yl)-1,2,4-thiadiazol-5-amine] | 0.06 µM | 0.058 µM | < 0.19 µM | 24.5 µM (≈ 8.04 µg/mL) | 2.7 | 2.7 | 100 % remaining | 94 % remaining |  |  |  |  | 
Cc1cccnc1N(C)c1nc(-c2ccc(OC(C)C)cn2)ns1 [Compound 42, 3-(5-Isopropoxypyridin-2-yl)-N-methyl-N-(3-methylpyridin-2-yl)-1,2,4-thiadiazol-5-amine] | 0.2 µM | 0.21 µM | 0.36 µM | 33.5 µM (≈ 11.4 µg/mL) | 2.35 | 2.35 | 81 % remaining | 96 % remaining |  | 0.357 µM | 0.212 µM |  | 
Cc1cccnc1N(c1nc(-c2ccc(OC(C)C)cn2)ns1)C(C)C [Compound 43, 3-(5-Isopropoxypyridin-2-yl)-N-isopropyl-N-(3-methylpyridin-2-yl)-1,2,4-thiadiazol-5-amine] | 3.3 µM |  | 3.4 µM | 118 µM (≈ 43.6 µg/mL) | 3.1 | 3.1 | 60 % remaining | 79 % remaining |  |  |  |  | 
CC(C)Oc1ccc(-c2nsc(N(C)c3ncccc3C(C)C)n2)nc1 [Compound 44, 3-(5-Isopropoxypyridin-2-yl)-N-(3-isopropylpyridin-2-yl)-N-methyl-1,2,4-thiadiazol-5-amine] | 1.67 µM |  | 1.4 µM | 121 µM (≈ 44.7 µg/mL) | 3 | 3 | 4 % remaining | 32 % remaining |  |  |  |  | 
CC(=O)Nc1cccnc1Nc1nc(-c2ccc(OC(C)C)cn2)ns1 [Compound 46] | 1.27 µM |  | 1.37 µM | 29.4 µM (≈ 10.9 µg/mL) | 2.4 | 2.4 |  |  |  |  |  | 29.5 µM (≈ 10.9 µg/mL) | > 30000 nM

Reference: article PMC9421654, “Discovery of Substituted Di(pyridin-2-yl)-1,2,4-thiadiazol-5-amines as Novel Macrofilaricidal Compounds for the Treatment of Human Filarial Infections” (Journal of Medicinal Chemistry, 2022)
